Measured values reported in the NIST ThermoML archive (doi:10.1016/j.tca.2014.05.028).
Numbers after ± are expanded uncertainties.

Tests used:
[1] = Molar enthalpy of transition or fusion; conditions: DSC
[2] = for mass density: 101 kPa, Liquid, Vibrating tube method; for Triple point temperature: DTA

Molar enthalpy of transition or fusion ([1]; Crystal)	mass density ([2]; 298.15 K)	mass density ([2]; 303.15 K)	mass density ([2]; 308.15 K)	mass density ([2]; 313.15 K)	mass density ([2]; 318.15 K)	mass density ([2]; 323.15 K)	mass density ([2]; 328.15 K)	mass density ([2]; 333.15 K)	mass density ([2]; 338.15 K)	mass density ([2]; 343.15 K)	Triple point temperature ([2]; Crystal)	Molar enthalpy of transition or fusion ([1]; Crystal 1)	Molar enthalpy of transition or fusion ([1]; Crystal 2)	Triple point temperature ([2]; Crystal 1)	Triple point temperature ([2]; Crystal 2)	Structure (SMILES)
3.14 ± 0.108 kcal/mol	1221.19 ± 2.9 kg/m3	1217.27 ± 2.9 kg/m3	1213.38 ± 2.8 kg/m3	1209.51 ± 2.8 kg/m3	1205.66 ± 2.8 kg/m3	1201.84 ± 2.8 kg/m3	1198.05 ± 2.8 kg/m3	1194.28 ± 2.8 kg/m3	1190.53 ± 2.7 kg/m3	1186.8 ± 2.7 kg/m3	487.67 ± 0.41 K					CCCC[N+]1(C)CCCC1.[Br-] [1-butyl-1-methylpyrrolidinium bromide]
	1188.96 ± 0.4 kg/m3	1185.14 ± 0.4 kg/m3	1181.35 ± 0.4 kg/m3	1177.58 ± 0.4 kg/m3	1173.84 ± 0.39 kg/m3	1170.12 ± 0.39 kg/m3	1166.42 ± 0.39 kg/m3	1162.75 ± 0.39 kg/m3	1159.1 ± 0.38 kg/m3	1155.48 ± 0.38 kg/m3		2.14 ± 0.0789 kcal/mol	0.466 ± 0.0382 kcal/mol	431.55 ± 0.41 K	326.85 ± 0.41 K	CCCCC[N+]1(C)CCCC1.[Br-] [1-methyl-1-pentylpyrrolidinium bromide]
	1259.96 ± 1.4 kg/m3	1255.92 ± 1.4 kg/m3	1251.9 ± 1.4 kg/m3	1247.91 ± 1.4 kg/m3	1243.94 ± 1.4 kg/m3	1240 ± 1.4 kg/m3	1236.08 ± 1.4 kg/m3	1232.19 ± 1.4 kg/m3	1228.32 ± 1.3 kg/m3	1224.48 ± 1.3 kg/m3		2.59 ± 0.0908 kcal/mol	0.698 ± 0.0478 kcal/mol	476.68 ± 0.41 K	465.12 ± 0.41 K	CCC[N+]1(C)CCCC1.[Br-] [1-methyl-1-propylpyrrolidinium bromide]
